According to PMC10999543, “Identification of kinase modulators as host-directed therapeutics against intracellular methicillin-resistant Staphylococcus aureus” (Frontiers in Cellular and Infection Microbiology, 2024):
Like-named read-outs stand apart in the source and are kept apart here.

Legend:
intracellular MRSA = assay type: cell-based, Staphylococcus aureus; settings: for %GFP+ rep 1 / z-scoreMRSA+ rep 1: replicate 1; for %GFP+ rep 2 / z-scoreMRSA+ rep 2: replicate 2; for %GFP+ rep 3 / z-scoreMRSA+ rep 3: replicate 3; for z-scoreMRSA+ mean: mean of 3 replicates
Procedure, shortened: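 HeLa cells were infected with GFP-expressing MRSA (mean MOI 6.8) for 1 h, treated with 30 µg/ml gentamicin for 15 min, then incubated overnight at 37°C with kinase inhibitors and 5 µg/ml gentamicin. Flow cytometry gave % GFP-positive cells, with cell count as viability. Hits were z-score ≤ -2 (infection) and ≥ -3 (count) versus DMSO.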

HeLa cells = test: Compound screen by flow cytometry: HeLa cell count as surrogate readout of cell viability (z-scoreHeLa); assay type: cell-based, human; settings: for cell count rep 1 / z-scoreHeLa rep 1: replicate 1; for cell count rep 2 / z-scoreHeLa rep 2: replicate 2; for cell count rep 3 / z-scoreHeLa rep 3: replicate 3; for z-scoreHeLa mean: mean of 3 replicates
Procedure, shortened: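 The viability surrogate was the count of fixed HeLa cells by flow cytometry, converted to z-scores against DMSO controls with values deviating two-fold excluded. Before counting, cells had been infected with MRSA for 1 h and cleared of extracellular bacteria with gentamicin. They were then exposed overnight to kinase inhibitors in triplicate.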

[1] = PKIS compound screen raw data, MRSA-infected HeLa cells
[2] = PKIS compound screen, MRSA-infected HeLa cells
[3] = PKIS compound screen, Yes/No call
[4] = PKIS compound screen, Yes/No call (effect without cell death)
[5] = PKIS compound screen, Yes/No call on z-scoreMRSA+
[6] = PKIS compounds raw data, MRSA-infected HeLa cells
[7] = PKIS compound screen raw data, HeLa cell count
[8] = PKIS compound screen, HeLa cell count
[9] = PKIS compound screen, Yes/No call on z-scoreHeLa
[10] = PKIS compounds raw data, HeLa cell count
[11] = Yes/No: effect without cell death
[12] = compound screen, MRSA-infected HeLa cells
[13] = compound screen, HeLa cell count

SMILES	%GFP+ rep 1 (intracellular MRSA; [1]) [%]	%GFP+ rep 2 (intracellular MRSA; [1]) [%]	%GFP+ rep 3 (intracellular MRSA; [1]) [%]	effect (intracellular MRSA; [3])	hit (intracellular MRSA; [4])	z-scoreMRSA+ mean (intracellular MRSA; PKIS compound screen)	z-scoreMRSA+ rep 1 (intracellular MRSA; PKIS compound screen)	z-scoreMRSA+ rep 2 (intracellular MRSA; PKIS compound screen)	z-scoreMRSA+ rep 3 (intracellular MRSA; PKIS compound screen)	%GFP+ rep 1 (intracellular MRSA; [6]) [%]	%GFP+ rep 2 (intracellular MRSA; [6]) [%]	%GFP+ rep 3 (intracellular MRSA; [6]) [%]	cell count rep 1 (HeLa cells; [7])	cell count rep 2 (HeLa cells; [7])	cell count rep 3 (HeLa cells; [7])	cell death (HeLa cells; [3])	z-scoreHeLa mean (HeLa cells; PKIS compound screen)	z-scoreHeLa rep 1 (HeLa cells; PKIS compound screen)	z-scoreHeLa rep 2 (HeLa cells; PKIS compound screen)	z-scoreHeLa rep 3 (HeLa cells; PKIS compound screen)	other results
CC(C)c1nc(-c2cccc(NS(=O)(=O)c3ccccc3)c2)c(-c2ccnc(Nc3ccc4c(c3)CN(C)CC4)n2)s1 [GSK1649598A]	10.0	11.1	12.2	No	No and Yes	-0.25	-0.30	-0.22	-0.22	25.5	24.9	26.1	27349	20392	19957	No	-0.86	-1.22	-0.62	-0.73	z-scoreMRSA+ mean (intracellular MRSA; [2]): -2.36; z-scoreMRSA+ rep 1 (intracellular MRSA; [2]): -2.35; z-scoreMRSA+ rep 2 (intracellular MRSA; [2]): -2.27; z-scoreMRSA+ rep 3 (intracellular MRSA; [2]): -2.47; effect (intracellular MRSA; [5]): Yes; z-scoreHeLa mean (HeLa cells; [8]): -0.37; z-scoreHeLa rep 1 (HeLa cells; [8]): -0.48; z-scoreHeLa rep 2 (HeLa cells; [8]): -0.84; z-scoreHeLa rep 3 (HeLa cells; [8]): 0.20; cell death (HeLa cells; [9]): No; cell count rep 1 (HeLa cells; [10]): 4018; cell count rep 2 (HeLa cells; [10]): 5078; cell count rep 3 (HeLa cells; [10]): 4439
Cc1cc(N2CCC(NS(=O)(=O)c3ccc(F)cc3)CC2)nc(Nc2cccc(C#N)c2)n1 [GSK1653537A]	23.5	20.6	22.3										5368	4678	5821						effect (intracellular MRSA; Yes/No call from z-scoreMRSA+): No; hit (intracellular MRSA; [11]): No; z-scoreMRSA+ mean (intracellular MRSA; [12]): -0.29; z-scoreMRSA+ rep 1 (intracellular MRSA; [12]): -0.41; z-scoreMRSA+ rep 2 (intracellular MRSA; [12]): -0.49; z-scoreMRSA+ rep 3 (intracellular MRSA; [12]): 0.03; cell death (HeLa cells; Yes/No call from z-scoreHeLa): No; z-scoreHeLa mean (HeLa cells; [13]): 0.46; z-scoreHeLa rep 1 (HeLa cells; [13]): 0.73; z-scoreHeLa rep 2 (HeLa cells; [13]): 0.29; z-scoreHeLa rep 3 (HeLa cells; [13]): 0.37
COc1ccc(S(=O)(=O)NC2CCN(c3cc(C)nc(Nc4cccc(C#N)c4)n3)CC2)cc1 [GSK1653539A]	17.8	20.5	23.1	No	No	0.99	0.85	0.68	1.43	31.4	29.6	35.0	25166	21326	16886	No	0.33	0.22	0.92	-0.16	z-scoreMRSA+ mean (intracellular MRSA; [2]): 0.18; z-scoreMRSA+ rep 1 (intracellular MRSA; [2]): -0.26; z-scoreMRSA+ rep 2 (intracellular MRSA; [2]): 0.30; z-scoreMRSA+ rep 3 (intracellular MRSA; [2]): 0.51; effect (intracellular MRSA; [5]): No; z-scoreHeLa mean (HeLa cells; [8]): -0.64; z-scoreHeLa rep 1 (HeLa cells; [8]): -0.85; z-scoreHeLa rep 2 (HeLa cells; [8]): -0.68; z-scoreHeLa rep 3 (HeLa cells; [8]): -0.40; cell death (HeLa cells; [9]): No; cell count rep 1 (HeLa cells; [10]): 6417; cell count rep 2 (HeLa cells; [10]): 7400; cell count rep 3 (HeLa cells; [10]): 5350
CC(=O)N1CCN(c2ccc(Nc3nccc(-c4sc(C(C)C)nc4-c4cccc(NS(=O)(=O)c5cccc(Cl)c5)c4)n3)cn2)CC1 [GSK1660437A]	26.9	24.1	23.6										4478	3506	4504						effect (intracellular MRSA; Yes/No call from z-scoreMRSA+): No; hit (intracellular MRSA; [11]): No; z-scoreMRSA+ mean (intracellular MRSA; [12]): 0.39; z-scoreMRSA+ rep 1 (intracellular MRSA; [12]): 0.38; z-scoreMRSA+ rep 2 (intracellular MRSA; [12]): 0.36; z-scoreMRSA+ rep 3 (intracellular MRSA; [12]): 0.42; cell death (HeLa cells; Yes/No call from z-scoreHeLa): No; z-scoreHeLa mean (HeLa cells; [13]): -0.33; z-scoreHeLa rep 1 (HeLa cells; [13]): 0.09; z-scoreHeLa rep 2 (HeLa cells; [13]): -0.61; z-scoreHeLa rep 3 (HeLa cells; [13]): -0.46
Cc1cc(N2Cc3ccccc3C2)nc(Nc2ccc(S(=O)(=O)N3CCOCC3)cc2)n1 [GSK1669917A]	24.7	22.0	22.0										5559	4564	5979						effect (intracellular MRSA; Yes/No call from z-scoreMRSA+): No; hit (intracellular MRSA; [11]): No; z-scoreMRSA+ mean (intracellular MRSA; [12]): -0.11; z-scoreMRSA+ rep 1 (intracellular MRSA; [12]): -0.13; z-scoreMRSA+ rep 2 (intracellular MRSA; [12]): -0.15; z-scoreMRSA+ rep 3 (intracellular MRSA; [12]): -0.06; cell death (HeLa cells; Yes/No call from z-scoreHeLa): No; z-scoreHeLa mean (HeLa cells; [13]): 0.51; z-scoreHeLa rep 1 (HeLa cells; [13]): 0.87; z-scoreHeLa rep 2 (HeLa cells; [13]): 0.20; z-scoreHeLa rep 3 (HeLa cells; [13]): 0.47
CN(C)S(=O)(=O)c1cc(-c2ccc3nccc(-c4cccc(S(N)(=O)=O)c4)c3c2)cnc1N [GSK1669921A]				No	No	-1.31	-1.39	-1.10	-1.42	19.9	20.3	19.6				No	-1.20	-1.09	-1.39	-1.10	cell count rep 1 (HeLa cells; [10]): 4231; cell count rep 2 (HeLa cells; [10]): 3906; cell count rep 3 (HeLa cells; [10]): 3857
CC(C)c1nc(-c2cccc(NS(=O)(=O)c3c(F)cccc3F)c2)c(-c2ccnc(Nc3ccc(N4CCOCC4)nc3)n2)s1 [GSK1723980B]	10.5	11.7	10.2										2167	1981	2206						effect (intracellular MRSA; Yes/No call from z-scoreMRSA+): Yes; hit (intracellular MRSA; [11]): Yes; z-scoreMRSA+ mean (intracellular MRSA; [12]): -3.23; z-scoreMRSA+ rep 1 (intracellular MRSA; [12]): -3.44; z-scoreMRSA+ rep 2 (intracellular MRSA; [12]): -2.65; z-scoreMRSA+ rep 3 (intracellular MRSA; [12]): -3.59; cell death (HeLa cells; Yes/No call from z-scoreHeLa): No; z-scoreHeLa mean (HeLa cells; [13]): -1.76; z-scoreHeLa rep 1 (HeLa cells; [13]): -1.58; z-scoreHeLa rep 2 (HeLa cells; [13]): -1.79; z-scoreHeLa rep 3 (HeLa cells; [13]): -1.92
CC(C)c1nc(-c2ccc(F)c(NS(=O)(=O)c3c(F)cccc3F)c2)c(-c2ccnc(Nc3ccc(N4CCOCC4)nc3)n2)s1 [GSK1804250A]	10.3	10.8	13.4	No	No and Yes	-0.36	-0.40	-0.43	-0.25	25.0	23.8	25.9	20970	16426	18426	No	-1.04	-1.27	-0.95	-0.90	z-scoreMRSA+ mean (intracellular MRSA; [2]): -2.25; z-scoreMRSA+ rep 1 (intracellular MRSA; [2]): -2.27; z-scoreMRSA+ rep 2 (intracellular MRSA; [2]): -2.35; z-scoreMRSA+ rep 3 (intracellular MRSA; [2]): -2.14; effect (intracellular MRSA; [5]): Yes; z-scoreHeLa mean (HeLa cells; [8]): -1.06; z-scoreHeLa rep 1 (HeLa cells; [8]): -1.56; z-scoreHeLa rep 2 (HeLa cells; [8]): -1.52; z-scoreHeLa rep 3 (HeLa cells; [8]): -0.10; cell death (HeLa cells; [9]): No; cell count rep 1 (HeLa cells; [10]): 3939; cell count rep 2 (HeLa cells; [10]): 4582; cell count rep 3 (HeLa cells; [10]): 4170
N#Cc1ccc(CCNc2nccc(-c3cccc(CN4CCNCC4)c3)n2)cc1 [GSK2137462A]	14.3	14.4	16.1	No	No	-0.14	-0.07	-0.12	-0.24	26.7	25.4	26.0	48589	40019	40009	No	0.08	-0.12	0.13	0.23	effect (intracellular MRSA; Yes/No call from z-scoreMRSA+): No; hit (intracellular MRSA; [11]): No; z-scoreMRSA+ mean (intracellular MRSA; [12]): -1.32; z-scoreMRSA+ rep 1 (intracellular MRSA; [12]): -1.20; z-scoreMRSA+ rep 2 (intracellular MRSA; [12]): -1.37; z-scoreMRSA+ rep 3 (intracellular MRSA; [12]): -1.40; cell count rep 1 (HeLa cells; [10]): 5843; cell count rep 2 (HeLa cells; [10]): 6203; cell count rep 3 (HeLa cells; [10]): 5956; cell death (HeLa cells; Yes/No call from z-scoreHeLa): No; z-scoreHeLa mean (HeLa cells; [13]): 3.25; z-scoreHeLa rep 1 (HeLa cells; [13]): 3.12; z-scoreHeLa rep 2 (HeLa cells; [13]): 2.53; z-scoreHeLa rep 3 (HeLa cells; [13]): 4.11
